Results reported in patent publication US10647738B2, “Xylene-based amphiphilic compound and use thereof” (Industry-University Cooperation Foundation Hanyang …, priority 2016, dated 2020).
“And” between values parts separate entries of the source, which are not always exact repeats. Equal values may be shown once. “Also recorded” adds a separate entry of the source.

How the values were obtained:
[1] = target: T1, human β2 adrenergic receptor (β2AR) (Homo sapiens, UniProt P07550); assay: [3H]-dihydroalprenolol radioligand binding of β2AR purified in detergent; settings: 10 nM [3H]-DHA, 30 minutes, room temperature
T1 construct: made in house
T1 sequence (P07550 whole entry): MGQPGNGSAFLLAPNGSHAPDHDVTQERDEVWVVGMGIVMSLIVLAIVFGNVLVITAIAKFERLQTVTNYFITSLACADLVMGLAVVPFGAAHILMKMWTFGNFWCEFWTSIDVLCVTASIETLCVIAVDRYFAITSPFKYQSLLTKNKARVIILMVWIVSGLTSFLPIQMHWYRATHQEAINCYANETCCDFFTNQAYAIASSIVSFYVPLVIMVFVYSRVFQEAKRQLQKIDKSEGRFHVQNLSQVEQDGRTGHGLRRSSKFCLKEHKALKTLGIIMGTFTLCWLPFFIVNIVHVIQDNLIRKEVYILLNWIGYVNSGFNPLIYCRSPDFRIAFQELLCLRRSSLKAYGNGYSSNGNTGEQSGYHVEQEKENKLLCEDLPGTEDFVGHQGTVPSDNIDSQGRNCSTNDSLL
Method: An activation degree of a receptor (mBBr-β2AR) purified by DDM or XMAs was measured by [^3H]-dihydroalprenolol ([^3H]-DHA) binding.
Specifically, a radioligand binding assay was performed by the following method. β2AR was purified in the presence of 0.1% DDM. After β2AR was reloaded into an M1 Flag column in the presence of 2 mM CaCl2, a DDM (0.1%)-XMA (0.2%) buffer mixture was prepared in a ratio of 50:50, 20:80, 10:90, 5:95 or 0:100. The receptor was eluted in 20×CMC XMA with 5 mM EDTA and 0.2 mg/ml of a free Flag peptide. 0.1 pmol purified β2AR solubilized in DDM, P-XMA-C11, P-XMA-C12, M-XMAs or O-XMAs was incubated with 10 nM of radioactive DHA [^3H]-dihydroalprenolol (DHA) for 30 minutes at room temperature. The mixture was loaded into a G-50 column, and a flow-through was collected with a binding buffer (20 mM HEPES pH 7.5, supplemented with 0.5 mg/ml BSA, 100 mM NaCl), and further filled with 15 ml of a scintillation fluid. Receptor-binding [^3H]DHA was measured with a scintillation counter (Beckman). Non-specific binding of [^3H]-DHA was calculated by adding 1 μM of alprenolol (Sigma) in the same binding reaction. The binding degree of [^3H]-DHA was measured as a column graph.

[2] = Hydrodynamic radius and size distribution of micelles by dynamic light scattering (DLS); format: physicochemical; settings: for Rh (nm), hydrodynamic radius of micelles: 1.0 wt % stated for M-/O-XMAs (FIG. 37); for size distribution of micelles (number of micelle sets): FIGS. 36 and 37
Method: A method for measuring the radius of a micelle is not particularly limited, but a method well known in the art may be used, and for example, the measurement may be performed using a dynamic light scattering (DLS) experiment.
(§1) Specifically, the critical micellar concentration (CMC) was measured using fluorescence staining and diphenylhexatriene (DPH), and the hydrodynamic radii (Rh) of the micelles formed by agents were measured through a dynamic light scattering (DLS) experiment. The measured results are shown in Tables 1 and 2, compared with a conventional amphiphilic molecule (detergent), DDM.

[3] = Critical micelle concentration by fluorescence staining with diphenylhexatriene (DPH); format: physicochemical; settings: aqueous solution
Method: While a method for measuring CMC is not particularly limited, a method widely known in the art may be used, and the measurement may be performed by, for example, a fluorescence staining method using diphenylhexatriene (DPH).
as §1

[4] = tested on: leucine transporter (LeuT); assay: LeuT long-term stability, [3H]-Leu binding by scintillation proximity assay (SPA); format: biochemical, Aquifex aeolicus; settings: room temperature, 12-day incubation; for LeuT long-term stability (ligand binding activity): CMC+0.04 wt %; for LeuT ligand binding activity maintained: CMC+0.2 wt %
Method: An experiment for measuring the structural stability of a LeuT protein due to M-XMAs or O-XMAs was performed. Each amphiphilic compound was used at CMC+0.04 wt % (a) or CMC+0.2 wt % (b), and the ligand-binding activity of LeuT was determined using [^3H]-Leu by scintillation proximity assay (SPA). Measurement was regularly performed at room temperature during a 12-day incubation period.
Specifically, wild-type leucine transporter (LeuT) derived from thermophilic bacteria Aquifex aeolicus was purified according to a previously disclosed protocol (G. Deckert et al., Nature 1998, 392, 353-358). In summary, LeuT was expressed in E. coli C41 (DE3) incubated in lysogeny broth supplemented with 0.1 mg/ml ampicillin. Protein expression was induced by adding isopropyl β-D-thiogalactopyranoside at the final concentration of 0.1 mM. Cell membranes were isolated from disrupted cells (Constant Systems Homogenizers, Kennesaw, Ga.), and solubilized in 1% (w/v) n-dodecyl-β-D-maltopyranoside (DDM; Affymetrix, Santa Clara, Calif.). After solubilization, LeuT was fixed to a chelating Sepharose Fast Flow resin (GE Healthcare), and approximately 90 to 100% pure LeuT was eluted in 20 mM Tris-HCl (pH 7.5), 199 mM KCl, 1 mM NaCl, 0.05% (w/v) DDM and 300 mM imidazole. Afterward, the purified LeuT (approximately 1.2 mg mL^−1) was diluted 10 times with buffer which is the same as that used above and supplemented with M-XMAs and O-XMA, except DDM and imidazole, at the final concentration of CMC+0.04% (w/v) or CMC+0.2% (w/v). DDM and P-XMA-C11 were used as positive controls. Protein samples were stored at room temperature, and protein activity at a predetermined time was determined by measuring [^3H]-Leucine binding using SPA. SPA was performed using a total volume of 100 μL of […] of each protein sample solubilized in a buffer containing 450 mM NaCl, 50 nM [^3H]-Leucine and 0.125 mg ml^−1 copper chelate (His-Tag) YSi beads (Perkin Elmer, Denmark). A [^3H]-Leucine binding degree was measured using a MicroBeta liquid scintillation counter (Perkin Elmer).

[5] = target: T1, human β2 adrenergic receptor (β2AR); assay: mBBr-β2AR fluorescence spectrum after dilution to CMC or less; format: biochemical; settings: diluted with NH buffer, 30 minutes
Method: An experiment for comparing changes in protein structures of XMAs and DDM at CMC or less of an amphiphilic molecule was carried out.
Specifically, 0.5 μl of an unliganded mBB-labeled receptor solubilized in 20×CMC P-XMA-C11 or P-XMA-C12 at 50 μM was diluted with 500 μl of a NH buffer (20 mM HEPES pH 7.5, 100 mM NaCl). The protein was incubated for 30 minutes, and the mBBr spectrum was measured. The receptor solubilized in 0.1% DDM was diluted with a NH buffer, and used as a control.

[6] = target: T2, melibiose permease (MelB) (Salmonella typhimurium, UniProt P30878); assay: MelB extraction from membranes and thermostability, SDS-PAGE and western blotting
T2 construct: made in house; host or cells: Salmonella typhimurium DW2 cells (ΔmelB and ΔlacZY) (so in the source); membrane preparation
T2 sequence (P30878 whole entry): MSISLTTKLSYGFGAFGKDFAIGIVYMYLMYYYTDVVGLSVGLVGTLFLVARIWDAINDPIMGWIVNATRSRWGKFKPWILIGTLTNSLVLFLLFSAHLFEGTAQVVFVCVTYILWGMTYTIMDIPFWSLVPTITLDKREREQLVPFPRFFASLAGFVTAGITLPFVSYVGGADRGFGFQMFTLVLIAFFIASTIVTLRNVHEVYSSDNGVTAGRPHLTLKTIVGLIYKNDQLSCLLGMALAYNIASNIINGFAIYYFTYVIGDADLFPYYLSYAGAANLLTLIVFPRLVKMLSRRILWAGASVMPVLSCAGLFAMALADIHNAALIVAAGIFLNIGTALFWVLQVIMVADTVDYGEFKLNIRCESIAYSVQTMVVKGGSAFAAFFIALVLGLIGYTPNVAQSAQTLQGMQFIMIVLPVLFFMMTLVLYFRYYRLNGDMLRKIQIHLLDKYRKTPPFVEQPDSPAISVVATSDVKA
Method: An experiment for measuring the structural stability of the Salmonella typhimurium melibiose permease (MelB) protein due to XMAs was performed. The MelB protein was extracted on a membrane using XMAs and DDM, and the amount and structure of the extracted protein were analyzed by SDS-PAGE and western blotting. A concentration of the used compound was 1.5 wt %, and the protein was extracted at a different temperature (0, 45, 55, or 65° C.) to evaluate two kinds of performance such as protein extraction efficiency and stabilization ability of the compound at the same time. Membrane samples that were not treated with XMAs or DDM were used as controls.
Specifically, MelBSt stability due to DDM and XMAs was evaluated according to the method described in the paper (P. S. Chae, et al., Nat. Methods 2010, 7, 1003-1008) written by the inventor in 2010. The protein (MelBSt) was produced using plasmid pK95ΔAHB/WT MelBSt/CH10 encoding wild-type MelB with a 10-His tag at the C-terminus and Salmonella typhimurium DW2 cells (ΔmelB and ΔlacZY). Cell growth and membrane preparation were carried out according to the method described in the paper (Nat. Commun. 2014, 5, 3009) written by A. S. Ethayathulla et al. A protein assay was performed using a Micro BCA kit (Thermo Scientific, Rockford, Ill.). To measure solubilization/stability, MelBSt-containing membrane samples (final protein concentration of 10 mg/mL) were incubated with a solubilization buffer (20 mM sodium phosphate, pH 7.5, 200 mM NaCl, 10% glycerol, 20 mM melibiose) and 1.5% (w/v) DDM, P-XMAs (P-XMA-C8, P-XMA-C9, P-XMA-C10, P-XMA-C11 and P-XMA-C12), M-XMAs (M-XMA-C11, M-XMA-C12, M-XMA-C14, M-XMA-C16 and M-XMA-C18) or O-XMAs (O-XMA-C11, O-XMA-C12, O-XMA-C14, O-XMA-C16 and O-XMA-C18) at four different temperatures (0, 45, 55 and 65° C.) for 90 minutes. Following ultracentrifugation at 355,590 g in a Beckman Optima™ MAX ultracentrifuge using a TLA-100 rotor for 45 minutes at 4° C., 20 μg proteins were separated by SDS-16% PAGE, and then immunoblotted with a Penta-His-HRP antibody (Qiagen, Germantown, Md.). MelBSt was detected using a SuperSignal West Pico chemiluminescent substrate by an ImageQuant LAS 4000 Biomolecular Imager (GE Health Care Life Sciences).

Row | Compound | [3H]-DHA binding degree of purified β2AR [1] | Rh (nm), hydrodynamic radius of micelles [2] | CMC [3] | CMC (wt %) [3] [wt %] | LeuT long-term stability (ligand binding activity) [4] | LeuT ligand binding activity maintained [4] | size distribution of micelles (number of micelle sets) [2] | structural change of β2AR on dilution to CMC or less [5] | MelBSt stabilization ability compared with DDM ([6]; 1.5 wt % detergent, 0, 45, 55 and 65° C.) | MelB protein extraction efficiency ([6]; 1.5 wt % detergent, 45° C., 90 minutes) | MelB protein extraction / maintained solubilization ([6]; 1.5 wt % detergent, 55° C., 90 minutes) | MelB protein extraction ([6]; 1.5 wt % detergent, 65° C., 90 minutes)
1 | CCCCCCCCCCCC(CO[C@@H]1OC(CO)[C@@H](O[C@H]2OC(CO)[C@@H](O)C(O)C2O)C(O)C1O)(CO[C@@H]1OC(CO)[C@@H](O[C@H]2OC(CO)[C@@H](O)C(O)C2O)C(O)C1O)Cc1cccc(C[C@](CCCCCCCCCCC)(CO[C@@H]2OC(CO)[C@@H](O[C@H]3OC(CO)[C@@H](O)C(O)C3O)C(O)C2O)CO[C@@H]2OC(CO)[C@@H](O[C@@H]3OC(CO)[C@@H](O)C(O)C3O)C(O)C2O)c1 (stereo partly shown) [M-XMA-C11] | higher radioactive-ligand binding degree than P-XMA-C11 | 3.2 ± 0.01 nm | ~6.0 µM | ~0.0011 | – | – | – | – | – | – | – | –
2 | CCCCCCCCCCCCC(CO[C@@H]1OC(CO)[C@@H](O[C@H]2OC(CO)[C@@H](O)C(O)C2O)C(O)C1O)(CO[C@@H]1OC(CO)[C@@H](O[C@H]2OC(CO)[C@@H](O)C(O)C2O)C(O)C1O)Cc1cccc(C[C@](CCCCCCCCCCCC)(CO[C@@H]2OC(CO)[C@@H](O[C@H]3OC(CO)[C@@H](O)C(O)C3O)C(O)C2O)CO[C@@H]2OC(CO)[C@@H](O[C@@H]3OC(CO)[C@@H](O)C(O)C3O)C(O)C2O)c1 (stereo partly shown) [M-XMA-C12] | superior to O-XMA-C12, and similar to DDM | 3.4 ± 0.02 nm | ~4.0 µM | ~0.0008 | substantial reinforcement of long-term stability of LeuT, compared with DDM; also recorded: higher stability than O-XMA-C12 | superior at maintaining the ligand binding activity of LeuT compared to DDM; also recorded: generally better performance than O-XMA-C12 | – | – | – | – | – | –
3 | CCCCCCCCCCCCC(CO[C@@H]1OC(CO)[C@@H](O[C@@H]2OC(CO)[C@@H](O)C(O)C2O)C(O)C1O)(CO[C@@H]1OC(CO)[C@@H](O[C@@H]2OC(CO)[C@@H](O)C(O)C2O)C(O)C1O)Cc1ccccc1CC(CCCCCCCCCCCC)(CO[C@@H]1OC(CO)[C@@H](O[C@@H]2OC(CO)[C@@H](O)C(O)C2O)C(O)C1O)CO[C@@H]1OC(CO)[C@@H](O[C@@H]2OC(CO)[C@@H](O)C(O)C2O)C(O)C1O (stereo partly shown) [O-XMA-C12] | – | 3.2 ± 0.03 nm | ~6.0 µM | ~0.0011 | substantial reinforcement of long-term stability of LeuT, compared with DDM | superior at maintaining the ligand binding activity of LeuT compared to DDM | – | – | – | – | – | –
4 | CCCCCCCCCCCC(CO[C@@H]1OC(CO)[C@@H](O[C@H]2OC(CO)[C@@H](O)C(O)C2O)C(O)C1O)(CO[C@@H]1OC(CO)[C@@H](O[C@H]2OC(CO)[C@@H](O)C(O)C2O)C(O)C1O)Cc1ccc(CC(CCCCCCCCCCC)(CO[C@@H]2OC(CO)[C@@H](O[C@H]3OC(CO)[C@@H](O)C(O)C3O)C(O)C2O)CO[C@@H]2OC(CO)[C@@H](O[C@H]3OC(CO)[C@@H](O)C(O)C3O)C(O)C2O)cc1 (stereo partly shown) [P-XMA-C11] | radioactive-ligand binding degree similar to the receptor purified by DDM | 3.3 ± 0.03 nm | ~3 µM and ~3.0 µM | ~0.0006 | – | – | two sets of micelles having different radii | less structural change | – | – | – | –
5 | CCCCCCCCCCCCC(CO[C@@H]1OC(CO)[C@@H](O[C@H]2OC(CO)[C@@H](O)C(O)C2O)C(O)C1O)(CO[C@@H]1OC(CO)[C@@H](O[C@H]2OC(CO)[C@@H](O)C(O)C2O)C(O)C1O)Cc1ccc(CC(CCCCCCCCCCCC)(CO[C@@H]2OC(CO)[C@@H](O[C@H]3OC(CO)[C@@H](O)C(O)C3O)C(O)C2O)CO[C@@H]2OC(CO)[C@@H](O[C@H]3OC(CO)[C@@H](O)C(O)C3O)C(O)C2O)cc1 (stereo partly shown) [P-XMA-C12] | radioactive-ligand binding degree similar to the receptor purified by DDM | 3.7 nm and 3.7 ± 0.01 nm | ~1 µM | ~0.0002 | – | – | two sets of micelles having different radii | less structural change | higher MelBSt stabilization ability than DDM | extraction efficiency at the same level as DDM | higher MelBSt extraction ability than DDM | extracted MelBSt
